Measurements from patent EP3613735A1, “NOVEL SIRT 1 ACTIVATOR AND MEDICINAL USE THEREOF” (Pusan National University Industry - University Cooperation …, priority 2017, dated 2018).

Legend:
[1] = biological target: T1, SIRT 1 (Homo sapiens, UniProt Q96EB6); test: SIRT 1 fluorometric drug discovery kit (AK-555, Biomol), deacetylation of Fluor de Lys-SIRT 1 substrate; format: biochemical; details: 100 µM candidate vs 100 µM resveratrol positive control; 25 µM Fluor de Lys-Sirt1, 25 µM NAD+
T1 sequence (Q96EB6 1-747): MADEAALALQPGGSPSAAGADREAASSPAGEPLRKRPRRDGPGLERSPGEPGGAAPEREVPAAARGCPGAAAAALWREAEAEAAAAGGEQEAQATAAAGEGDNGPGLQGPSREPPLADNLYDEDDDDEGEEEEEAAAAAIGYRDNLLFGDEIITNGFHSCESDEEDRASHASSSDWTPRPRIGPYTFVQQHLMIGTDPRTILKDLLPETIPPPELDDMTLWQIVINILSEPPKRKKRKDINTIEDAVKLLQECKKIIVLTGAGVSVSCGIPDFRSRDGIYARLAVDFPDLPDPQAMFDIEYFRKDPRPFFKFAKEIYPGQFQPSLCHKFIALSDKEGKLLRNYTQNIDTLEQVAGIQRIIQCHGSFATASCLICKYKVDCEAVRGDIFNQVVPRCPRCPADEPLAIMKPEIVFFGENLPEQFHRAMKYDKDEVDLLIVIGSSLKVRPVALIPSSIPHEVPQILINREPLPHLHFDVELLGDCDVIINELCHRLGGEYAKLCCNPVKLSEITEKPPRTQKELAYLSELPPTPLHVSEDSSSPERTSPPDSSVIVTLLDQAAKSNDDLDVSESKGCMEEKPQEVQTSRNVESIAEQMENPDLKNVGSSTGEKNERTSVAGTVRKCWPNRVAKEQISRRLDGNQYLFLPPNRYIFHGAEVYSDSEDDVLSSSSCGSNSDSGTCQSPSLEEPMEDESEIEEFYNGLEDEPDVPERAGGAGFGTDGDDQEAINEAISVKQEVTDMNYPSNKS
Protocol: SIRT 1 activity of candidate SIRT 1 activator compounds synthesized based on the benzo[d]furan backbone were measured using a SIRT 1 fluorometric drug discovery kit (AK-555, Biomol). Briefly, as the substrate for analysis, 0.2 U/L of Fluor de Lys-SIRT 1 substrate developer mixture is used, which is amino acid 379382 of human […] AC), and SIRT 1 incubated with cosubstrate NAD^+. The degree of initial deacetylation of SIRT 1 for 100 μM candidate was measured using 100 μM resveratrol as a positive control in 25 μM Fluor de Lys-Sirt1 and 25 μM NAD^+ environments. The reaction was stopped using Fluor de LysTM Developer II/2 mM nicotinamide, followed by measuring fluorescence (Excitation: 360 nm, Emission: 460 nm). The SIRT 1 activity for candidate SIRT 1 activator compounds synthesized based on the benzo[d]oxazole backbone were measured using SIRT 1 fluorometric drug discovery kit (AK-555, Biomol). Briefly, 0.2 U/L of Fluor de Lys-SIRT 1 substrate developer mixture liquid was used as the analytical substrate, meaning amino acid 379382 of human […] […] The initial degree of deacetylation of SIRT 1 for 100 μM candidate was measured using 100 μM resveratrol as a positive control in 25 μM Fluor de Lys-Sirt1 and 25 μM NAD+. The reaction was stopped using Fluor de LysTM Developer II/2 mM nicotinamide, followed by fluorescence (Excitation: 360 nm, Emission: 460 nm).

[2] = test system: db/db mice; test: Glucose tolerance test and fasting blood glucose in obese animal model; format: in vivo, mouse; details: for fasting blood glucose: oral 5 mg/kg daily, compared to db/db mouse group; for glucose tolerance (blood glucose concentration): three weeks after oral administration of 5 mg/kg daily, glucose 2 g/kg intraperitoneally after 12 hours fasting
Protocol: The metabolic disease control ability of Compound 32u was analyzed using db/db mice lacking an appetite-regulating hormone leptin receptor as an obese animal model. Compound 32u was orally administered to db/db mice (9 weeks old) at a concentration of 5 mg/kg daily for 4 weeks. Three weeks after oral administration of Compound 32u, a glucose tolerance test was performed. Mice were fasted for 12 hours or more, and glucose (2 g/kg) was injected intraperitoneally, and blood from the tail of the mouse was measured for blood glucose at each time using a glucometer ([…]). The metabolic disease control ability of Compound 70c was analyzed using db/db mice lacking an appetite-regulating hormone leptin receptor as an obese animal model. Compound 70c was orally administered to db/db mice (9 weeks old) at a concentration of 5 mg/kg daily for 4 weeks. Three weeks after oral administration of Compound 70c, a glucose tolerance test was performed. Mice were fasted for 12 hours or more, and glucose (2 g/kg) was injected intraperitoneally, and blood from the tail of the mouse was measured for blood glucose at each time using a glucometer ([…]).

[3] = test system: FASN, ACC, SREBP-1a, SREBP-1c and SREBP-2; test: Liver mRNA expression of fat synthesis genes, quantitative real-time PCR; format: in vivo, mouse; details: db/db mice, oral 5 mg/kg daily for 4 weeks
Protocol: Since obesity and insulin resistance are representative diseases directly related to the development of non-alcoholic fatty liver, the improvement effect of Compound 32u on fatty liver was analyzed. Compound 32u was orally administered to db/db mice (9 weeks old) at a concentration of 5 mg/kg daily for 4 weeks. First, the accumulation of fat in the liver, the most representative phenotype, was measured. Briefly, about 50 mg of liver was quantified in cold phosphate buffered saline (PBS) or 0.9% sodium chloride (NaCl) and crushed, followed by treating with mixed solvent of chloroform and methanol (MeOH) in a volume ratio of 2:1 and reacted for 2 hours. […] Thereafter, the amount of neutral fat was measured by absorbance using a neutral fat measurement kit (Stanbio laboratory, TX USA). In order to confirm the corresponding mechanism, mRNA expression of genes related to fat synthesis and degradation was analyzed. […] For the synthesized cDNA, a quantative real-time polymerase chain reaction (quantative real-time PCR) was performed to target the desired gene as a primer and quantify it in real time. Since obesity and insulin resistance are representative diseases directly related to the development of non-alcoholic fatty liver, the improvement effect of Compound 70c on fatty liver was analyzed. […] First, the accumulation of fat in the liver, the most representative phenotype, was measured. […]

Row | Structure (SMILES) | SIRT 1 activity [1] | fasting blood glucose [2] | glucose tolerance (blood glucose concentration) [2] | expression of fat synthesis genes (FASN, ACC, SREBP-1a, SREBP-1c and SREBP-2) [3]
1 | O=C(Nc1ccccc1-c1nc2cc(CN3CCN(C4CCCCC4)CC3)ccc2o1)c1ccc2ccccc2c1 [Compound 70c, N-(2-(5-((4-Cyclohexylpiperazin-1-yl)methyl)benzo[d]oxazol-2-yl)phenyl)-2-naphthamide] | higher SIRT 1 activity effect than resveratrol | reduced | glucose tolerance was restored | significantly reduced
2 | Cl.O=C(Nc1ccccc1-c1cc2ccc(CN3CCNCC3)cc2o1)c1ccc2ccccc2c1 [Compound 32u, N-(2-(6-(Piperazin-1-ylmethyl)benzofuran-2-yl)phenyl)-2-naphthamide hydrochloride] | higher SIRT 1 activity effect than resveratrol | reduced | glucose tolerance was restored | significantly reduced
